In brackets after ≈: the same amount, converted by molar mass. Several values for one entry are separate records, joined by “and”; a condition that tells them apart may be missing. Equal values may be shown once. Read-outs that look alike come from different tables or passages of the source.
What was measured:
[1] = test system: C. albicans (ATCC10231; Candida albicans); assay: Minimum growth inhibition concentration (MIC); format: cell-based
Procedure: (§1) The dilution series of the chelating agent of each test group was prepared according to a standard method, microbes were inoculated, and then 24 hours later, the microbial growth was confirmed, thereby determining the minimum growth inhibition concentration of the chelating agent of each test group. Microbes used herein were S. aureus (ATCC6538; Staphylococcus aureus), P. aeruginosa (ATCC9027; Pseudomonas aeruginosa) and C. albicans (ATCC10231; Candida albicans). Drugs used herein were oxacillin, vancomycin and deferasirox as positive controls.

[2] = test system: S. aureus (ATCC6538; Staphylococcus aureus); assay: Minimum growth inhibition concentration (MIC); format: cell-based; conditions: for MIC: Staphylococcus aureus, ATCC6538; for MIC / MIC S. aureus: 24 hours
Procedure: as §1

[3] = test system: P. aeruginosa (ATCC9027; Pseudomonas aeruginosa); assay: Minimum growth inhibition concentration (MIC); format: cell-based; conditions: 24 hours; for MIC: Pseudomonas aeruginosa, ATCC9027
Procedure: as §1

[4] = test system: A. actinomycetemcomitans AaY4 (ATCC); assay: Antibacterial activity, turbidity and ATP assay; format: cell-based, Aggregatibacter actinomycetemcomitans; conditions: anaerobic culture 37° C., 18 hours; FIGS. 7A, 7B
Procedure: A bacterial strain of one of periodontopathic bacteria, A. actinomycetemcomitans, used herein was AaY4 (ATCC). With the use of a liquid medium prepared by adding a yeast extract, sodium bicarbonate and the chelating agent of each test group to TSB medium, anaerobic culture (Anaeropack-anaerobic) was performed at 37° C. for 18 hours. Turbidity was measured using absorbance (OD570 or 595 nm), and cell activity was measured using an ATP assay kit. Results were as depicted in FIGS. 7A and 7B.

[5] = test system: S. mutans (ATCC25175); assay: Antibacterial activity, turbidity and ATP assay; format: cell-based, Streptococcus mutans; conditions: aerobic culture 37° C., 18 hours; FIGS. 6A, 6B
Procedure: First, the antibacterial activity of a dental caries-causing bacterium, S. mutans (ATCC25175) was examined. With the use of a liquid medium prepared by adding a yeast extract and the chelating agent of each test group to TSB medium, aerobic culture was performed at 37° C. for 18 hours, and then turbidity was found from optical density (OD570 or 595 nm). Cell activity was measured using an ATP assay kit (Kikkoman Corporation). Results were as depicted in FIGS. 6A and 6B.

[6] = test system: Human lung cancer cell line (A549) subcutaneous tumors; assay: In vivo antitumor effects, A549 subcutaneous tumors in nude mice
Procedure: Antitumor effects were confirmed using animal models. Specifically, nude mice (BALB/c nu/nu, 6 weeks old: Clea Japan Inc.) were provided. Human lung cancer cell line (A549) was adjusted at 3×10^6/mouse, and then mixed with Matrigel (BD Biosciences) at 1:1. The thus obtained mixture was administered to mice, thereby forming subcutaneous tumors. At 1 week after the formation of subcutaneous tumors, mice were divided into a negative control group (saline: 4 mice), a test group 9 administration group (test group 9: 3 mice), and a positive control group (deferasirox: 3 mice), and then subjected to oral administration. The dosage of deferasirox was 20 mg/kg/day (5 times/week administration) corresponding to that specified for humans in the package insert. Test group 9 was administered in the same dosage as that of deferasirox. Results were as depicted in FIGS. 4A and 4B.

[7] = format: in vivo; design: NEFA: unit not given here; conditions: for Body weight: rats
Procedure: To a negative control group (saline administration; n=6), the same amount of saline was administered. On day 14 after administration, determining life or death, measurement of body weight, physical items (respiration, body temperature, behavior, etc.) were observed. Moreover, blood samples were taken from each group, and the right kidneys and the livers were removed. Results were as depicted in FIG. 5A to 5C and Tables 4 to 9.

[8] = rat blood, oral 200 mg/kg, day 14
[9] = rat blood, oral 1000 mg/kg, day 14
[10] = rat blood, oral 1000 mg/kg, day 14, 1000 mg/kg

## O=C(O)c1ccc(-n2nc(-c3ccccc3O)nc2-c2ccccc2O)cc1 [Deferasirox, deferasirox, reference compound]
[1]; Candida albicans, ATCC10231, 24 hours
  MIC: > 250 µg/mL
[2]
  MIC: 250 µg/mL (≈ 670 µM)
[3]
  MIC: > 250 µg/mL

## Cc1onc(-c2ccccc2)c1C(=O)N[C@@H]1C(=O)N2[C@@H]1SC(C)(C)[C@@H]2C(=O)O [Oxacillin, oxacillin, reference compound]
[2]
  MIC: 0.25 µg/mL (≈ 0.623 µM)
[3]
  MIC: 1020 µg/mL (≈ 2550 µM)

## Cl.OCC1OC(O)C(NCc2ccc(O)c(O)c2)C(O)C1O (centres unmarked) [Test group 5]
[4]
  antimicrobial effects on A. actinomycetemcomitans (turbidity, ATP activity): strong antimicrobial effects
[5]
  antimicrobial effects on S. mutans (turbidity, ATP activity): strong antimicrobial effects
[1]; 24 hours
  MIC C. albicans: 800 µg/mL
[1]; from Table 10
  antimicrobial effects on C. albicans (in words): exhibited antimicrobial effects
[2]
  MIC S. aureus: 800 µg/mL
[3]
  MIC P. aeruginosa: >800 µg/mL

## Cl.O=C(O)c1cc(CNC2C(O)OC(CO)C(O)C2O)ccc1O (centres unmarked) [Test group 7]
[1]; 24 hours
  MIC C. albicans: >800 µg/mL
[2]
  MIC S. aureus: >800 µg/mL
[3]
  MIC P. aeruginosa: >800 µg/mL

## Cl.O=C(O)[C@H](Cc1c[nH]cn1)NCc1ccc(O)c(O)c1 [Test group 8]
[1]; 24 hours
  MIC C. albicans: >800 µg/mL
[2]
  MIC S. aureus: 800 µg/mL
[2]; from Table 10
  antimicrobial effects on S. aureus (in words): antimicrobial effects
[3]
  MIC P. aeruginosa: >800 µg/mL

## Cl.O=C(O)c1cc(CN[C@@H](Cc2c[nH]cn2)C(=O)O)ccc1O [Test group 9]
[6]; A549 subcutaneous tumors, nude mice, oral 20 mg/kg/day (5 times/week), FIG. 4A
  in vivo antitumor effects: antitumor effects were exhibited to an extent almost equivalent to that in the positive control group
[6]; mouse, in vivo, po, 20 mg/kg/day
  body weight change: no significant change was observed in body weight
[6]; nude mice, oral 20 mg/kg/day (5 times/week)
  death during the experiment: no mice died during the experiment
[7]; [8]
  ALP: 695 IU/L
  ALT: 24 IU/L
  AST: 54 IU/L
  BUN: 22.8 mg/dL
  CRE: 0.37 mg/dL
  Ca: 11.1 mg/dL
  GLU: 214 mg/dL
  K: 4.7 mEQ/L
  LD: 49 IU/L
  NEFA: 59
  Na: 146 mEQ/L
  T-Bil: 0.05 mg/dL
  TP: 5.5 g/dL
[7]; [9]
  CRE: 0.36 mg/dL
  T-Bil: 0.06 mg/dL
[7]; [10]
  ALP: 563 IU/L and 502 IU/L
  ALT: 24 IU/L and 25 IU/L
  AST: 59 IU/L and 58 IU/L
  BUN: 22.5 mg/dL and 24.4 mg/dL
  Ca: 10.0 mg/dL and 11.2 mg/dL
  GLU: 195 mg/dL and 301 mg/dL
  K: 3.6 mEQ/L and 4.8 mEQ/L
  LD: 78 IU/L and 70 IU/L
  Na: 143 mEQ/L and 144 mEQ/L
  TP: 5.4 g/dL and 5.9 g/dL
[7]; oral 200 mg/kg
  Body weight: 190.97 g
[7]; oral 1000 mg/kg, 1000 mg/kg
  Body weight: 177.11 g and 183.15 g
[1]; 24 hours
  MIC C. albicans: >500 µg/mL
[2]
  MIC S. aureus: >500 µg/mL
[3]
  MIC P. aeruginosa: >500 µg/mL

## CN[C@H](CC(C)C)C(=O)N[C@H]1C(=O)N[C@@H](CC(N)=O)C(=O)N[C@H]2C(=O)N[C@H]3C(=O)N[C@H](C(=O)N[C@H](C(=O)O)c4cc(O)cc(O)c4-c4cc3ccc4O)[C@H](O)c3ccc(c(Cl)c3)Oc3cc2cc(c3O[C@@H]2O[C@H](CO)[C@@H](O)[C@H](O)[C@H]2O[C@H]2C[C@](C)(N)[C@H](O)[C@H](C)O2)Oc2ccc(cc2Cl)[C@H]1O [Vancomycin, vancomycin, reference compound]
[2]
  MIC: 1.6 µg/mL (≈ 1.1 µM)
[3]
  MIC: > 50 µg/mL
